Marks after values point to notes of the source that are not given here.
How the values were obtained:
[1] = test system: IL-22 release in human PBMC; test: IL-22 release, human PBMC under Th17 polarization conditions; type: cell-based; settings: human PBMC under Th17 polarization condition
Description: (§1) An increase in the levels of Th17 dependent cytokine in the peripheral blood of COPD patients as compared to the Th1 and Th2 dependent cytokines has been well documented in a subset of COPD patients. A comparative study was performed under TCR activating conditions to evaluate the potencies of PCCR-1 for inhibition across Th1, Th2 and Th17 dependent cytokines using hPBMCs.
(§2) Human whole blood from healthy subjects were procured from Clinical Research Unit, Sanpada. Clinical Research Center Glenmark (Plot No. D, 508, Turbhe, TTC Industrial Area, MIDC, Sanpada, Navi Mumbai, Maharashtra 400705, India). PBMCs were isolated using heparinized blood with Ficoll Histopaque. Briefly, the cells were seeded in 96-well plate pre-coated with human anti-CD3 mAb (10 µg/mL), post 30 min of compound treatment cells were stimulated with human anti-CD28 mAb (2 µg/mL). After 72 h of culture, the supernatant was collected for Th1/Th2 cytokines; IFN-γ, IL-2, IL-4 and IL-10 and measured by ELISA. For Th17 polarization assay, the following cytokine cocktail was used: IL-1β (10 ng/ml), IL-23(10 ng/ml), IL-6 (50 ng/ml), TGF-β1 (3 ng/ml), IL-2 (20U/ml) and supernatants were used for measuring IL-17 and IL-22 by ELISA.

[2] = 14-day dose-range inhalation toxicology study in Sprague Dawley rats; type: in vivo, rat
Description: Rats were exposed to PCCR-1 aerosols at 3.4, 10.8 and 32.1 mg/kg/day (delivered dose) for 60 min daily for 14 days using a snout only exposure technique via a modular stainless steel flow past inhalation chamber at indicated doses as mentioned in Table 3. No treatment-related findings noted, including myeloid:erythroid (M:E) ratios in any dose levels except minimal changes in the reticulocytes and adrenal glands.
The 14-day dose-range inhalation toxicology study was conducted at Charles River Laboratories Edinburgh Ltd, Elphinstone Research Centre, Tranent, East Lothian, EH33 2NE, UK, under the Home Office Project License No. PPL 70/8778, Toxicology of Pharmaceuticals. The UK Home Office controls scientific procedures on animals in the UK and does so by the issue of licences under the Animals (Scientific Procedures) Act 1986. The regulations conform to EU Directive 2010/63/EU and achieve the standard of care required by the US Department of Health and Human Services' Guide for the Care and Use of Laboratory Animals.
The toxicology study was done in SD (Sprague Dawley) rats that were exposed to PCCR-1 aerosol for 60 min daily at 3.4, 10.8 and 32.1 mg/kg/day (delivered dose) for 14 days using a snout only exposure technique via a modular stainless steel flow past inhalation chamber. A 60% w/w blend of PCCR-1 in Lactose LH201 was prepared by adding the appropriate amount of PCCR-1 to the appropriate amount of lactose. The estimated delivered doses were derived based on analytical aerosol concentration, and respiratory minute volume calculated based on body weight, exposure duration, and animal body weight (Supplementary section B).

[3] = test system: IL-17 release from COPD patient whole blood; test: IL-17 release, whole blood from COPD patients; type: cell-based; settings: Homo sapiens; TCR stimulated, n = 5; read-out: IL-17 IC50, COPD patient's sample: WB
Description: Whole blood and BAL samples from COPD patients were obtained from Multispecialty hospital, Mumbai post approval from ethics committee and informed consent of patients. 30–40 mL Broncho alveolar lavage (BALf) was collected per patient and stored in ice. Blood was collected in heparin vaccutainer as per approved protocol. Both the samples were processed within 2 h of collection. BALF was passed through 100-µm and 40-µm cell strainer to remove debris and mucus, the samples were centrifuged and the cells were re-suspended in RPMI 1640 complete medium. PBMCs from blood were isolated using Histopaque-1077 by density gradient centrifugation. Isolated BAL cells and PBMCs were seeded in 96 well coated with 10 µg/ml anti-CD3 and 2 µg/ml anti-CD2. Cells were further treated with different concentration of test compound for 60 min followed by stimulation with 20 µg/ml anti-CD28 and incubated for 48–72 h. The supernatant was used for estimating IL-17 by ELISA.

Kinases (~ 40 in no) = test: Kinase panel (~ 40); type: biochemical; set-up: key: NSE No significant effect; V wk very weak (very low-level agonist activity seen with mPPARγ); settings: at 10 µM
Excerpt: (§3) Based on the homology of the ligand binding domains, 3 different isoforms of ROR (hRORα, hRORβ and hRORγ) are reported. Small variations in the LBD regions possibly lead to differences in competitive binding between the nuclear receptors of the ROR isoforms (Fig. 1b). Similar to the assessment of RORγ binding assay, TR-FRET binding assays were also used to assess the affinity of PCCR-1 for other ROR isoforms. […] This was reconfirmed in cellular functional assays for the selected isoforms and nuclear receptors using Gal4 DBD with luciferase reporter system from Indigo (PA, USA). […] In addition, both cellular agonist and antagonist effects as well as for enzyme activity were evaluated with a known reference compound for each target, using a radiolabeled method (Eurofins Cerep, France, Table 1).

FXR = test system: T1, FXR; test: TR-FRET selectivity binding assay, FXR
T1 construct: purchased Invitrogen
Excerpt: as §3
For selectivity, the ROR isoforms RORα, FXR, LXRα, LXRβ, RXR, RARα were incubated with compound for 60 min at 22 °C followed by detection mix containing respective agonist (All trans retinoic acid for RARα, T0901317 for LXRα, LXRβ, 9-cis Retinoic acid for RXR, GW-4064 for FXR) and coactivator peptide (FD22 for RORα, PGC1α for RXR, RARα, TRAP220 for LXRα, LXRβ, SRC2-2 for FXR) and Tb-anti GST antibody prepared in assay buffer were added into a 384-well white plate. Reading taken after overnight incubation and the data analysis done as per the protocol mentioned in RORγt-LBD and co-activator ligand binding assay.

[4] = test system: Th1 (IL-2 and IFN-γ) and Th2 (IL-4, IL-13 and IL-10) dependent cytokines in hPBMCs; test: Th1 and Th2 cytokine release, human PBMC, TCR activating conditions; type: cell-based; settings: hPBMC, even at 10 µM
Description: as §1, §2

[5] = test system: IL-17 cytokine from rat splenocytes; test: IL-17 inhibition, rat splenocytes; type: cell-based; settings: Splenocyte, read-out: potency, rat IL-17 inhibition
[6] = Females (n = 5/group), 32.1 mg/kg/day
[7] = Males (n = 5/group), 32.1 mg/kg/day

CCn1c(C(C)(C)Oc2ccc(F)cc2F)nc2cc(NC(=O)Cc3ccc(S(=O)(=O)CC)cc3)ccc21 [PCCR-1]
ceiling effect for IL-22 release inhibition [1]: 60%
IC50 ([1]; n = 2, read-out: hIL-22 IC50): 0.0438 µM
Microscopic changes: Hypertrophy; zona fasciculata, diffuse (animals affected) [2, 6]: 3
Microscopic changes: hypertrophy, Mild (animals affected) [2, 6]: 2
Microscopic changes: hypertrophy, Minimal (animals affected) [2, 6]: 1
adrenal gland Absolute weight (mean ± SD) ([2]; Females, 32.1 mg/kg/day): 0.0950 ± 0.0139 g
adrenal gland weight Relative to body weight (mean ± SD) ([2]; Females, 32.1 mg/kg/day): 0.03168 ± 0.00549%
adrenal gland weight Relative to brain weight (mean ± SD) ([2]; Females, 32.1 mg/kg/day): 4.657 ± 0.6176%
Reticulocyte count (mean ± SD) ([2]; Females, 32.1 mg/kg/day, P ≤ 0.01): 295.4 ± 40.3* 10^9/L
Microscopic changes: Hypertrophy; zona fasciculata, diffuse (animals affected) [2, 7]: 0
Microscopic changes: hypertrophy, Mild (animals affected) [2, 7]: 0
Microscopic changes: hypertrophy, Minimal (animals affected) [2, 7]: 0
Reticulocyte count (mean ± SD) ([2]; Males, 32.1 mg/kg/day): 287.7 ± 62.6 10^9/L
adrenal gland Absolute weight (mean ± SD) ([2]; Males, 32.1 mg/kg/day): 0.0581 ± 0.0083 g
adrenal gland weight Relative to body weight (mean ± SD) ([2]; Males, 32.1 mg/kg/day): 0.01553 ± 0.00171%
adrenal gland weight Relative to brain weight (mean ± SD) ([2]; Males, 32.1 mg/kg/day): 2.803 ± 0.3041%
MTD at 14 days ([2]; Sprague Dawley, in vivo, inhaled or intranasal, rat, 14-day inhalation, read-out: maximum tolerated dose): 32.1 mg/kg/day
Microscopic changes: hypertrophy, Minimal (animals affected) ([2]; female, Sprague-Dawley, rat, in vivo, 14 days): 0
histopathological change of the adrenal gland ([2]; rat, in vivo): bilateral diffuse hypertrophy of the zona fasciculata
reticulocyte count compared with the control group ([2]; rat, in vivo): 1.09 fold
IC50 [3]: 5.05 µM
Kinases (~ 40 in no) (Kinases (~ 40 in no)): NSE at 10 µM
% Inhibition FXR (FXR; 1 µM): 21.45%
% Inhibition FXR (FXR; 10 µM): 19.81%
Fold over hRORγ, FXR (FXR; vs RORg IC50 31.87 nM): > 313.7 fold
inhibition of Th1 (IL-2 and IFN-γ) and Th2 (IL-4, IL-13 and IL-10) dependent cytokines [4]: did not show significant inhibition
IC50 [5]: 0.0806 µM

Source: paper PMC9130233, “An inhibitor of RORγ for chronic pulmonary obstructive disease treatment” (Scientific Reports, 2022)
